Results on 26 compounds are retold here after patent US8624036B2, “2-aryl-propionic acids and derivatives and pharmaceutical compositions containing them” (Dompe S.p.A., priority 2008, dated 2014).

Marks after values point to notes of the source that are not given here.

In data set [1] the test system is GRO-α induced chemotaxis of PMNs. Briefly: GRO-α (CXCL1) induced chemotaxis of human PMNs. The format is cell-based. The following applies: compound at 10^−8 M; for inhibition at 0.01 µM: Homo sapiens. How it is done: (§1) The compounds of the invention of formula (I) were evaluated in vitro for their ability to inhibit chemotaxis of polymorphonucleate leukocytes (hereinafter referred to as PMNs) and monocytes induced by the fractions of CXCL8 and GRO-α. For this purpose, in order to isolate the PMNs from heparinized human blood, taken from healthy adult volunteers, mononucleates were removed by means of sedimentation on dextran (W. J. Ming et al., J. Immunol., 138, 1469, 1987). The cell vitality was calculated by exclusion with Trypan blue, whilst the ratio of the circulating polymorphonucleates was estimated on the cytocentrifugate after staining with Diff Quick.
GRO-α induced chemotaxis inhibition was evaluated in an analogous assay.
(§2) In the chemotaxis experiments, the PMNs were incubated with the compounds of the invention of formula (I) for 15′ at 37° C. in an atmosphere containing 5% CO2. During the chemotaxis assay (W. Falket et al., J. Immunol. Methods, 33, 239, 1980) PVP-free filters with a porosity of 5 μm and microchambers suitable for replication were used.
(§3) The compounds of the invention in formula (I) were evaluated at a concentration ranging between 10^−6 and 10^−10 M; for this purpose they were added, at the same concentration, both to the lower pores and the upper pores of the microchamber. Evaluation of the ability of the compounds of the invention of formula (I) to inhibit the chemotaxis of human monocytes was carried out according to a disclosed method (J. Van Damme et al., Eur. J. Immunol., 19, 2367, 1989).

The subject of data set [2] is CXCL8 induced chemotaxis of PMNs. In words: CXCL8 induced chemotaxis of human PMNs. The data set is classed as cell-based. The following applies: CXCL8 10^−9 M; for inhibition at 0.01 µM / inhibition at 0.001 µM: Homo sapiens; for inhibition at 0.01 µM: read-out: CXCL8 (% inhibition), tested at 10^−8 M; for inhibition at 0.001 µM / CXCL8 (% inhibition at 10^−9 M): compound at 10^−9 M. How it is done: as §1
In the CXCL8 induced chemotaxis assay human recombinant CXCL8 (Pepro Tech) was used as stimulating agent in the chemotaxis experiments: the lyophilized protein was dissolved in a volume of HBSS containing 0.2% bovin serum albumin (BSA) in order to obtain a stock solution having a concentration of 10^−5 M to be diluted in HBSS to a concentration of 10^−9 M, for the chemotaxis assays.
as §2, §3

Data set [3] has as its system transient cerebral ischemia induced by occlusion of the middle cerebral artery. Briefly: Transient cerebral ischemia by middle cerebral artery (MCA) occlusion in rats. The format is in vivo. The following applies: short-term effect (24 hours). How it is done: The compounds of the present invention are particularly useful in the prevention and treatment of damages caused by ischemia/reperfusion, specifically in the protection from the functional injury induced by temporary cerebral middle cerebral artery (MCA) occlusion. Specifically, compound 3a was evaluated in terms of efficacy in a model of transient cerebral ischemia induced in rats by occlusion of the middle cerebral artery (MCA). The short-term effect (24 hours) of 3a on cerebral myeloperoxidase (MPO) activity, a marker of PMN infiltration, brain damage and neurological deficits, was investigated.

Setting [4] is: compound at 10^−8 M (footnote *).

Regarding `CC(C(=O)O)c1ccc(Nc2nc(C(F)(F)F)cs2)cc1` (stereo not drawn) [Compound 1, 2-(4-{[4-(Trifluoromethyl)-1,3-thiazol-2-yl]amino}phenyl)propanoic acid], the inhibition – broadly, how much of the control response was suppressed – at 0.01 µM amounted to 40 ± 6% in data set [1] and 43 ± 7% in data set [2] (setting [4]).
On to `CC(C)(C(=O)O)c1ccc(Nc2nc(C(F)(F)F)cs2)cc1` [Compound 2, 2-Methyl-2-(4-{[4-(trifluoromethyl)-1,3-thiazol-2-yl]amino}phenyl)propanoic acid], for which the inhibition at 0.01 µM in data set [1] turned out to be 42 ± 9%. For the same compound, the inhibition at 0.001 µM in data set [2] was 56 ± 10%.
Compound `C[C@H](C(=O)O)c1ccc(Nc2nc(C(F)(F)F)cs2)cc1` [Compound 3, (2S)-2-(4-{[4-(Trifluoromethyl)-1,3-thiazol-2-yl]amino}phenyl)propanoic acid] had an inhibition at 0.01 µM in data set [1] of 58 ± 6%. The compound also had an inhibition at 0.001 µM in data set [2] of 66 ± 11%.
Take `C[C@H](C(=O)[O-])c1ccc(Nc2nc(C(F)(F)F)cs2)cc1.[Na+]` [Compound 3a, Sodium (2S)-2-(4-{[4-(trifluoromethyl)-1,3-thiazol-2-yl]amino}phenyl)propanoate]: the “CXCL1 (% inhibition at 10^−8 M)” value in data set [1] came to 55 ± 8%. Further, the “CXCL8 (% inhibition at 10^−9 M)” value in data set [2] worked out at 64 ± 9%. Moreover, in data set [3], the “PMN infiltrate (cerebral myeloperoxidase (MPO) activity)” value is reported as “efficacious in reducing PMN infiltrate”, the “infarct size (brain damage)” value is “efficacious in reducing” and the “neurological functions (neurological deficits)” value is reported as “improving significantly neurological functions”.
Take `Cc1csc(Nc2ccc(C(C)C(=O)O)cc2)n1` (stereo not drawn) [Compound 4, 2-{4-[(4-Methyl-1,3-thiazol-2-yl)amino]phenyl}propanoic acid]: the inhibition at 0.01 µM in data set [1] was determined as 45 ± 10%; in data set [2] (setting [4]) it was 46 ± 6%.
`Cc1csc(Nc2ccc([C@H](C)C(=O)O)cc2)n1` [Compound 5, (2S)-2-{4-[(4-Methyl-1,3-thiazol-2-yl)amino]phenyl}propanoic acid] registered an inhibition at 0.01 µM in data set [1] of 38 ± 10%. This compound also registered an inhibition at 0.001 µM in data set [2] of 40 ± 11%.
As to `CC(C(=O)O)c1ccc(Nc2nc(C(C)(C)C)cs2)cc1` (stereo not drawn) [Compound 6, 2-{4-[(4-tert-Butyl-1,3-thiazol-2-yl)amino]phenyl}propanoic acid], the figures for the inhibition at 0.01 µM in data set [1] and in data set [2] (setting [4]) were 36 ± 10% and 55 ± 10%, respectively.
Consider `C[C@H](C(=O)O)c1ccc(Nc2nc(C(C)(C)C)cs2)cc1` [Compound 7, (2S)-2-{4-[(4-tert-Butyl-1,3-thiazol-2-yl)amino]phenyl}propanoic acid], for which, in data set [1], 0.01 µM produced 45 ± 10% inhibition. Moreover, the inhibition at 0.001 µM in data set [2] was determined as 50 ± 8%.
In the case of `CC(C(=O)O)c1ccc(N(C)c2nc(C(F)(F)F)cs2)cc1` (stereo not drawn) [Compound 8, 2-(4-{Methyl[4-(trifluoromethyl)-1,3-thiazol-2-yl]amino}phenyl)propanoic acid], the inhibition at 0.01 µM was 39 ± 10% in data set [1] and 45 ± 5% in data set [2] (setting [4]).
As for `C[C@H](C(=O)O)c1ccc(N(C)c2nc(C(F)(F)F)cs2)cc1` [Compound 9, (2S)-2-(4-{methyl[4-(trifluoromethyl)-1,3-thiazol-2-yl]amino}phenyl)propanoic acid], in data set [1], at 0.01 µM the inhibition was 40 ± 12%. The compound further gave an inhibition at 0.001 µM in data set [2] of 41 ± 7%.
The matching figures for `C[C@H](C(=O)NO)c1ccc(Nc2nc(C(F)(F)F)cs2)cc1` [Compound 10, (2S)—N-Hydroxy-2-(4-{[4-(trifluoromethyl)-1,3-thiazol-2-yl]amino}phenyl) propanamide]: 47 ± 12% and 51 ± 10%.
The matching figures for `C[C@H](C(=O)NS(C)(=O)=O)c1ccc(Nc2nc(C(F)(F)F)cs2)cc1` [Compound 11, (2S)—N-(Methylsulfonyl)-2-(4-{[4-(trifluoromethyl)-1,3-thiazol-2yl]amino}phenyl) propanamide]: 39 ± 7% and 54 ± 16%.
As to `C[C@H](C(=O)NS(=O)(=O)C(F)(F)F)c1ccc(Nc2nc(C(F)(F)F)cs2)cc1` [Compound 12], the “CXCL1 (% inhibition at 10^−8 M)” value in data set [1] came to 30 ± 7%. Besides, the “CXCL8 (% inhibition), tested at 10^−8 M” value in data set [2] (setting [4]) is 48 ± 13* %.
As for `C[C@H](C(N)=O)c1ccc(Nc2nc(C(F)(F)F)cs2)cc1` [Compound 13], the melting point (usually the temperature, or range, at which the solid turns liquid) was 204 to 205 °C. The compound further displayed an inhibition at 0.01 µM in data set [1] of 44 ± 9%. Further, in data set [2], the inhibition at 0.001 µM was 47 ± 3%.
Regarding `C[C@H](C(N)=O)c1ccc(N(C)c2nc(C(F)(F)F)cs2)cc1` [Compound 14, (2S)-2-(4-{Methyl[4-(trifluoromethyl)-1,3-thiazol-2-yl]amino}phenyl)propanamide], the inhibition at 0.01 µM in data set [1] stood at 34 ± 13%. The compound further yielded an inhibition at 0.001 µM in data set [2] of 45 ± 14%.
The like results for `C[C@H](C(N)=O)c1ccc(Nc2nc(C(C)(C)C)cs2)cc1` [Compound 15, (2S)-2-{4-[(4-tert-Butyl-1,3-thiazol-2-yl)amino]phenyl}propanamide] were, in that order, 45 ± 10% and 48 ± 8%.
The like results for `C[C@H](C(=O)N[C@H](C)C(=O)O)c1ccc(Nc2nc(C(F)(F)F)cs2)cc1` [Compound 16, (2R)-2-{[(2S)-2-(4-{[4-(Trifluoromethyl)-1,3-thiazol-2-yl]amino}phenyl)propanoyl]amino}propanoic acid] were, in that order, 30 ± 15% and 42 ± 7%.
The compound `CC(C)[C@H](NC(=O)[C@@H](C)c1ccc(Nc2nc(C(F)(F)F)cs2)cc1)C(=O)O` [Compound 17, (2S)-3-Methyl-2-{[(2S)-2-(4-{[4-(trifluoromethyl)-1,3-thiazol-2-yl]amino}phenyl)propanoyl]amino}butanoic acid] returned a melting point of 99 to 101 °C. Also, the inhibition at 0.01 µM in data set [1] was found to be 40 ± 12%. For the same compound, 0.001 µM produced 39 ± 2% inhibition in data set [2].
On to `CC(C(=O)O)c1ccc(Nc2nc(C(F)(F)F)co2)cc1` (stereo not drawn) [Compound 18, 2-{4-[(4-Trifluoromethyl)-oxazol-2-yl]amino}phenyl propionic], for which the inhibition at 0.01 µM in data set [1] came to 60 ± 9%; in data set [2] (setting [4]), 47 ± 12%.
In data set [1], `C[C@H](C(=O)O)c1ccc(Nc2nc(C(F)(F)F)co2)cc1` [Compound 19, (2S)-2-(4-{[4-(Trifluoromethyl)-1,3-oxazol-2-yl]amino}phenyl)propanoic acid] gave an inhibition at 0.01 µM of 36 ± 11%. In data set [2], this compound had an inhibition at 0.001 µM of 44 ± 10%.
The matching figures for `C[C@H](C(=O)O)c1ccc(N(C)c2nc(C(F)(F)F)co2)cc1` [Compound 20, (2S)-2-(4-{Methyl[4-(trifluoromethyl)-1,3-oxazol-2-yl]amino}phenyl)propanoic acid]: 44 ± 7% and 47 ± 8%.
Turning to `C[C@H](C(=O)NS(C)(=O)=O)c1ccc(Nc2nc(C(F)(F)F)co2)cc1` [Compound 21, (2S)—N-(Methylsulfonyl)-2-(4-{[4-(trifluoromethyl)-1,3-oxazol-2-yl]amino}phenyl) propanamide], the “CXCL1 (% inhibition at 10^−8 M)” value in data set [1] came out at 37 ± 2%. Further, in data set [2], the “CXCL8 (% inhibition at 10^−9 M)” value stood at 43 ± 6%.
On to `C[C@H](C(N)=O)c1ccc(Nc2nc(C(F)(F)F)co2)cc1` [Compound 22, (2S)-2-(4-{[4-(Trifluoromethyl)-1,3-oxazol-2-yl]amino}phenyl) propanamide], for which at 0.01 µM the inhibition in data set [1] was 49 ± 6%. For the same compound, in data set [2], testing at 0.001 µM gave an inhibition of 58 ± 5%.
`C[C@H](C(N)=O)c1ccc(N(C)c2nc(C(F)(F)F)co2)cc1` [Compound 23, (2S)-2-(4-{Methyl-[4-(trifluoromethyl)-1,3-oxazol-2-yl]amino}phenyl)propanamide] displayed an inhibition at 0.01 µM in data set [1] of 39 ± 2%. Moreover, in data set [2], testing at 0.001 µM gave an inhibition of 45 ± 13%.
For `C[C@H](NC(=O)[C@@H](C)c1ccc(Nc2nc(C(F)(F)F)co2)cc1)C(=O)O` [Compound 24, (2S)-2-{[(2S)-2-(4-{[4-(Trifluoromethyl)-1,3-oxazol-2-yl]amino}phenyl)propanoyl]amino}propanoic acid], the results for the inhibition at 0.01 µM in data set [1] and in data set [2] (setting [4]) were 34 ± 8% and 54 ± 12%, respectively.
Consider `C[C@H](NC(=O)[C@@H](C)c1ccc(Nc2nc(C(F)(F)F)co2)cc1)C(N)=O` [Compound 25, (2S)—N-[(1S)-2-Amino-1-methyl-2-oxoethyl]-2-(4-{[4-(trifluoromethyl)-1,3-oxazol-2-yl]amino}phenyl) propanamide], for which the inhibition at 0.01 µM in data set [1] turned out to be 39 ± 14%. Testing at 0.001 µM in data set [2] gave an inhibition of 46 ± 12%.
